22 compounds from patent publication US10940139B2, “Compounds that interact with the Ras superfamily for the treatment of cancers, inflammatory diseases, rasopathies, and fibrotic disease” (Shy Therapeutics LLC, priority 2017, dated 2021) can be followed below.

The test system of assay [1] is TNFα production in RAW 264.7 macrophage cell line. Description: Mouse TNF alpha quantification assay (LPS-stimulated macrophages, ELISA). As to conditions: RAW264.7, RAW 264.7 murine leukemia virus transformed macrophage cell lines, LPS stimulation, read-out: TNF-α % Inhibition at 30 μM. Type of assay: cell-based. (In general: ELISA stands for enzyme-linked immunosorbent assay.)

In assay [2] the test system is IL6 production in RAW 264.7 macrophage cell line. Kind of assay: Mouse IL6 quantification assay (LPS-stimulated macrophages, ELISA). It is filed as cell-based. As to conditions: RAW264.7, RAW 264.7 murine leukemia virus transformed macrophage cell lines, LPS stimulation, read-out: IL-6 % Inhibition at 30 μM.

Consider `N#Cc1cccc(-c2csc3c(O)nc(-c4ccccn4)nc23)c1` [drawing 2325], for which the inhibition at 30 µM was 0% in assay [1] and 26 to 50% in assay [2].

Regarding `COc1ccc(COC[C@H]2O[C@@H](c3csc4c(=O)[nH]c(-c5ccccn5)nc34)[C@H](O)[C@@H]2O)cc1` [drawing 2360], the inhibition at 30 µM in assay [1] is 26 to 50%; in assay [2], 1 to 25%.

On to `Nc1nc(O)c2sc(-c3cccc(C(=O)NCc4ncc[nH]4)c3)cc2n1` [drawing 2372], for which the inhibition at 30 µM in assay [1] and in assay [2] was 0% in each case.

Consider `Cn1ccnc1-c1nc(O)c2scc(-c3ccc(F)cc3F)c2n1` [drawing 2443], for which the inhibition at 30 µM in assay [1] was in the range of 1 to 25%; in assay [2], 51 to 75%.

As for `Cc1sc2[nH]c(-c3ccccn3)nc(=O)c2c1-c1ccccc1` [drawing 2026], the inhibition at 30 µM in assay [1] is 1 to 25%; in assay [2], 0%.

`O=C(CCn1ccc2ccccc21)Nc1nnc(-c2ccccn2)[nH]1` [drawing 1934]: the inhibition at 30 µM in assay [1] and in assay [2] was 1 to 25% in each case.

As to `O=C(Nc1nc(-c2ccccn2)cs1)C1CC(=O)N(c2ccc3c(c2)OCCO3)C1` (centres unmarked) [drawing 2016], the inhibition at 30 µM in assay [1] lay in the range of 1 to 25%; in assay [2], 26 to 50%.

For `O=C(CN1CCN(c2nc(-c3ccccn3)nc3sc(-c4ccccc4)cc23)CC1)N1CCCC1` [drawing 2143], the inhibition at 30 µM in assay [1] and in assay [2] was 76 to 100% throughout.

Regarding `O=C(Cn1c(=O)[nH]c2ccccc21)Nc1nnc(-c2ccccn2)[nH]1` [drawing 1987], the inhibition at 30 µM in assay [1] and in assay [2] was 1 to 25% throughout.

Regarding `COCCCCNC(=O)c1csc2nc(-c3ccccn3)nc(N3CCOCC3)c12` [drawing 2205], the inhibition at 30 µM in assay [1] and in assay [2] was 1 to 25% each time.

For the compound `Cc1ccc(-c2cc3nc(-c4ccccn4)nc(O)c3s2)cc1` [drawing 2382], the inhibition at 30 µM in assay [1] and in assay [2] was 1 to 25% throughout.

`Cc1cc(OC(F)F)ccc1-c1csc2c(O)nc(-c3ccccn3)nc12` [drawing 2270]: the figures for the inhibition at 30 µM in assay [1] and in assay [2] were 0% and 76 to 100%, respectively.

As for `CC(c1ccccc1)N1CCN(C(=O)c2csc3c(O)nc(-c4ccccn4)nc23)CC1` (centres unmarked) [drawing 2215], the results for the inhibition at 30 µM in assay [1] and in assay [2] were 0% and 51 to 75%, respectively.

On to `O=C(Nc1nnc(-c2ccccn2)[nH]1)c1ncoc1-c1cccs1` [drawing 1963], for which the inhibition at 30 µM in assay [1] is 1 to 25%; in assay [2], 26 to 50%.

For `Cc1cc(C(=O)Nc2nc(-c3ccccn3)cs2)no1` [drawing 2009], the inhibition at 30 µM in assay [1] was 0%; in assay [2] it was 76 to 100%.

For `O=C1CN(c2nc(-c3ccccn3)nc3scc(-c4ccccc4)c23)CCN1CCO` [drawing 2131], the inhibition at 30 µM in assay [1] and in assay [2] was 1 to 25% each time.

Take `Cc1sc2c(O)nc(-c3nccn3C)nc2c1-c1cccc(C(F)(F)F)c1` [drawing 2426]: the inhibition at 30 µM in assay [1] and in assay [2] was 0% in each case.

With `O=C(NCCc1ccnc(O)n1)c1csc2nc(-c3ccccn3)nc(N3CCOCC3)c12` [drawing 2290], the inhibition at 30 µM in assay [1] was 0%; in assay [2] it was 1 to 25%.

For the compound `CS(=O)(=O)c1cccc(C(=O)N2CCCc3c(O)nc(-c4ccccn4)nc32)c1` [drawing 2079], the inhibition at 30 µM in assay [1] was 0%; in assay [2] it was 51 to 75%.

For `Cc1nc(-c2ccccn2)nc(O)c1CCC(=O)Nc1cccc(OCC(=O)N2CCCC2)c1` [drawing 2036], the results for the inhibition at 30 µM in assay [1] and in assay [2] were 1 to 25% and 0%, respectively.

For `Cc1cccc(CN(Cc2ccccn2)Cc2nccn2C)c1` [drawing 2048], the inhibition at 30 µM in assay [1] was 1 to 25%; in assay [2], 26 to 50%.

For the compound `COc1ccc2c(ccn2CC(=O)Nc2nnc(-c3ccccn3)[nH]2)c1` [drawing 1940], the values for the inhibition at 30 µM in assay [1] and in assay [2] were 1 to 25% and 26 to 50%, respectively.

In general, inhibition refers to the drop in the measured response relative to a control, in per cent.
